Results published in patent publication US12240844B2 (Voronoi, Inc., priority 2019, dated 2025).

Experiments:
Assay in all cases: scanMAX Kinase panel (DiscoverX), % control
Format in all cases: binding
Conditions in all cases: <35% = active
MYLK = molecular target: T1, MYLK (Homo sapiens, UniProt Q15746)
T1 construct: purchased DiscoverX
Method: (§1) Specifically, for Examples 162, 160, 105, 217, 205, 96, 207, 184, 206, 221, 238, and 237 selected among the example compounds of the present invention, it was decided to measure enzyme (kinase) selectivity by DiscoverX, and the experiment was conducted using a panel for scanMAX™ Kinase analysis. At this time, the concentration of the drug treated with the enzyme was 1 uM in DMSO, the control percentage (% control) was determined in the same way as in Equation 1 below, and the results were shown in Table 6 below. [formula] Here, the positive control refers to a compound showing a control percentage of 0%, and the negative control is DMSO, indicating a control percentage of 100%. Also, in the enzyme selectivity of the present invention, if the control percentage for each enzyme was <35% (i.e., less than 35%), it was determined to have activity against the relevant enzyme.

CLK3 = molecular target: T2, CLK3 (Homo sapiens, UniProt P49761)
T2 construct: purchased DiscoverX
Method: as §1

DYRK1B = molecular target: T3, DYRK1B (Homo sapiens, UniProt Q9Y463)
T3 construct: purchased DiscoverX
T3 sequence (Q9Y463 whole entry): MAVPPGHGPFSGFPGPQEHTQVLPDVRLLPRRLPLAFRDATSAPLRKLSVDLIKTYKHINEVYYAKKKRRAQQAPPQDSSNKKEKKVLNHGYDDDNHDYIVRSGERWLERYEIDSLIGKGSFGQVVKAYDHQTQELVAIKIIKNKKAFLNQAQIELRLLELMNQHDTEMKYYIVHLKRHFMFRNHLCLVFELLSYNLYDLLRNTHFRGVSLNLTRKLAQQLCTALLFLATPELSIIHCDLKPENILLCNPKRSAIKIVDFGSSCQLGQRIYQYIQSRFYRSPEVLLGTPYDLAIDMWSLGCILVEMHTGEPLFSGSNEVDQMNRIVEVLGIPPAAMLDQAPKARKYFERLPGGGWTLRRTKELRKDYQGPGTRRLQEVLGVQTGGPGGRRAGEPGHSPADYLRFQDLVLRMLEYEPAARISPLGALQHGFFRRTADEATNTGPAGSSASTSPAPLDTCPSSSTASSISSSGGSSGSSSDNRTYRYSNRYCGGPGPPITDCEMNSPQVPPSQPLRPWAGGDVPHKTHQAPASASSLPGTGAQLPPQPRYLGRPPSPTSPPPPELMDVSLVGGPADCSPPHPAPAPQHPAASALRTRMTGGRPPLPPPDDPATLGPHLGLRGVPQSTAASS
Method: as §1

GAK = molecular target: T4, GAK (Homo sapiens, UniProt O14976)
T4 construct: purchased DiscoverX
T4 sequence (O14976 1-1311): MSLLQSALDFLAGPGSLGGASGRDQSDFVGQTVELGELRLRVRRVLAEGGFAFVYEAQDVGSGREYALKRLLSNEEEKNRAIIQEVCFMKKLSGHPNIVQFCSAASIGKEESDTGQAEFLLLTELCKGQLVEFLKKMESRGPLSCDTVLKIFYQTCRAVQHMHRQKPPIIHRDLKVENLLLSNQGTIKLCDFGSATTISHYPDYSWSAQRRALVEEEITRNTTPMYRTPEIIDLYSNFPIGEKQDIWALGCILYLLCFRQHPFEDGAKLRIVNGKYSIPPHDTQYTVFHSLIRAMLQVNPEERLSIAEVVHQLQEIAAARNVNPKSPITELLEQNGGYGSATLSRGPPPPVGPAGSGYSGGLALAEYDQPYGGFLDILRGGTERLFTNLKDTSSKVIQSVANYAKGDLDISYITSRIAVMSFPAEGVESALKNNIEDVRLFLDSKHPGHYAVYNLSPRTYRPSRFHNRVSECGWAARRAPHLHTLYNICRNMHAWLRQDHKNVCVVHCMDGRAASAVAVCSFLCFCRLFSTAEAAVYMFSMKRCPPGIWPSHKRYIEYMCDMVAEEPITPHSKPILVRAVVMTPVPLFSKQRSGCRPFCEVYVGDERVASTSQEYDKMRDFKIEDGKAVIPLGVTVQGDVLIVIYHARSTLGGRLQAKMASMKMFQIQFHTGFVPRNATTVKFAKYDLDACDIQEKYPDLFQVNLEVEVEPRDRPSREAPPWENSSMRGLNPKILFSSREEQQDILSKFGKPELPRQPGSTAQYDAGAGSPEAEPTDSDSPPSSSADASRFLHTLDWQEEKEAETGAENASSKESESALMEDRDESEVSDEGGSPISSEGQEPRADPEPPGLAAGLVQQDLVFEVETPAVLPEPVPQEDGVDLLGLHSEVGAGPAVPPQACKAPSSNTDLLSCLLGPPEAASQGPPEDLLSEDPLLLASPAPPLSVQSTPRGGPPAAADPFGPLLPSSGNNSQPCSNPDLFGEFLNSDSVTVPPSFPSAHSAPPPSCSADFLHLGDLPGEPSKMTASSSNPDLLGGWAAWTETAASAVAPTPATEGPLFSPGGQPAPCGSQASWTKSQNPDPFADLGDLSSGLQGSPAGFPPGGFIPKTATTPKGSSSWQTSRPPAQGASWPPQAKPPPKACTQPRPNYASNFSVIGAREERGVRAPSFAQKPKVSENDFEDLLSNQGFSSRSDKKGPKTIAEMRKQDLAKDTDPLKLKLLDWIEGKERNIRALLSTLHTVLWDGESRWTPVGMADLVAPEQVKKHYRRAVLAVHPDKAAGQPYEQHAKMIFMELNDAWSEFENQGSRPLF
Method: as §1

ALK = molecular target: T5, ALK (Homo sapiens, UniProt Q9UM73)
T5 construct: purchased DiscoverX
T5 sequence (Q9UM73 19-1620): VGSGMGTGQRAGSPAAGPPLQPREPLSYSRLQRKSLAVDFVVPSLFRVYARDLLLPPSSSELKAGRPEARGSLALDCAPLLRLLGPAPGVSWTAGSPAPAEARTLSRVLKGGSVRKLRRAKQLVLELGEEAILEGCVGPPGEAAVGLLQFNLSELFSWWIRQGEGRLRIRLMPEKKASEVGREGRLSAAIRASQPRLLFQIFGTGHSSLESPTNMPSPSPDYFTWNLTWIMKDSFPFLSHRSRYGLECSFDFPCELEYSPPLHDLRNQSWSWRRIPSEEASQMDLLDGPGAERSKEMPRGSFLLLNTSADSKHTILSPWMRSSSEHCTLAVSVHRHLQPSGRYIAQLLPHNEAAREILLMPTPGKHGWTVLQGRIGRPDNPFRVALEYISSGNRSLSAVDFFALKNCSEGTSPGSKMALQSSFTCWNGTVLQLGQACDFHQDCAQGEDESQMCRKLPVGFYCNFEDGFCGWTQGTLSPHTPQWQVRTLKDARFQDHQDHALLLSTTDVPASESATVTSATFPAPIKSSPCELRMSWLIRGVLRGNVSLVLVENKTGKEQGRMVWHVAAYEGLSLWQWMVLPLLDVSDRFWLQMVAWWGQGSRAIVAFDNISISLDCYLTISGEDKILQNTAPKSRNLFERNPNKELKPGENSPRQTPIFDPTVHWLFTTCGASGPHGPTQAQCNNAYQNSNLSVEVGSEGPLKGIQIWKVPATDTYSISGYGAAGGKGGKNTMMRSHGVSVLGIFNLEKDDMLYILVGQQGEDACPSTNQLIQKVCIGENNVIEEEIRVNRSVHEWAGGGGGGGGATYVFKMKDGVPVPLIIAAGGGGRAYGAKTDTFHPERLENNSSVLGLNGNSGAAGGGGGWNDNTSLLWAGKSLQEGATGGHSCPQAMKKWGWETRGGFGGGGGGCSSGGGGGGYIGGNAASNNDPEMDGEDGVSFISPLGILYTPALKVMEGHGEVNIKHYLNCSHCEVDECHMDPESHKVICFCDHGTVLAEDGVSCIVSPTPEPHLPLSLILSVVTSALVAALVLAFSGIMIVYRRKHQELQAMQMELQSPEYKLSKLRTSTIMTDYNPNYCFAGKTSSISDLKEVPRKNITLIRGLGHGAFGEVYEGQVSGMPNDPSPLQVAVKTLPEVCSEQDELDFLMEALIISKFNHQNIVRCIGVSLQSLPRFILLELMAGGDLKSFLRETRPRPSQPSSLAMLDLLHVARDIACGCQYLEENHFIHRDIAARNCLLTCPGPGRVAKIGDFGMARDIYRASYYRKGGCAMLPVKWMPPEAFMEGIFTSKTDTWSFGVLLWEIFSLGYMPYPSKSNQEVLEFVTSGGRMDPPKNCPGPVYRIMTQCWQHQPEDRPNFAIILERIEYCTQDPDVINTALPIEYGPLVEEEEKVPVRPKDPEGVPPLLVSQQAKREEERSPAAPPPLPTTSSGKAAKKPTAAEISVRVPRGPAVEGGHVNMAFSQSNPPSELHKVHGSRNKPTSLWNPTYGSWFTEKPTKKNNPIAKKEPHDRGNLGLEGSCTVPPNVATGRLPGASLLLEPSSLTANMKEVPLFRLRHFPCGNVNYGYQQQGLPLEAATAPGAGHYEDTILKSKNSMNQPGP
Method: as §1

ALK (C1156Y) = molecular target: T6, ALK (C1156Y) (Homo sapiens, UniProt Q9UM73, C1156Y)
T6 construct: purchased DiscoverX
Method: as §1

CLK1 = molecular target: T7, CLK1 (Homo sapiens, UniProt P49759)
T7 construct: purchased DiscoverX
T7 sequence (P49759 whole entry): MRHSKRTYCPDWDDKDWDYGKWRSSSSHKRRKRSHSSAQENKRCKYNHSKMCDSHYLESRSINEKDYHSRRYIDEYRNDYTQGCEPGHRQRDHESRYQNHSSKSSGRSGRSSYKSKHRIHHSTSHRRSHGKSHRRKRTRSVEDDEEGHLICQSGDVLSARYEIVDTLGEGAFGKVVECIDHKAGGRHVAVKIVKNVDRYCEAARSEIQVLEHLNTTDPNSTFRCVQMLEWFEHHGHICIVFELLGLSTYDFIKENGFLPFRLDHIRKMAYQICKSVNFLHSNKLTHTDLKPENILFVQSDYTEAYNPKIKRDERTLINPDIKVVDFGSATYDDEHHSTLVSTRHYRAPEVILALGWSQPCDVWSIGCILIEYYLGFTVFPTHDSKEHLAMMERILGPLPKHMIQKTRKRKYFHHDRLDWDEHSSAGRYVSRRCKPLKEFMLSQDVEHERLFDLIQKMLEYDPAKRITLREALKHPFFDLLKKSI
Method: as §1

CLK2 = molecular target: T8, CLK2 (Homo sapiens, UniProt P49760)
T8 construct: purchased DiscoverX
T8 sequence (P49760 whole entry): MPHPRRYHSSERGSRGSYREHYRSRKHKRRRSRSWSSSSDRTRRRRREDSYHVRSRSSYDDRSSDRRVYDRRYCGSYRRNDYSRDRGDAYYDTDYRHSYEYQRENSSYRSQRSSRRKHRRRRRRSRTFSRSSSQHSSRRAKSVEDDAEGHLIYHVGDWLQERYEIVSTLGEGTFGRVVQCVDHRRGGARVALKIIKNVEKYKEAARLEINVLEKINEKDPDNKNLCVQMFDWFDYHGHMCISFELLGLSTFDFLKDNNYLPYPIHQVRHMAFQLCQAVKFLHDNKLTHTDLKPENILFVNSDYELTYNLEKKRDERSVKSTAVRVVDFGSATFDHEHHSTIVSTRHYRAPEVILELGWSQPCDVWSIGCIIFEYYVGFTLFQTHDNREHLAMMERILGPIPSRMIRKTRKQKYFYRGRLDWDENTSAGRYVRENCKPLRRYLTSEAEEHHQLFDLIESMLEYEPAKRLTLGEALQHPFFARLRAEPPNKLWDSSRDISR
Method: as §1

DYRK1A = molecular target: T9, DYRK1A (Homo sapiens, UniProt Q13627)
T9 construct: purchased DiscoverX
Method: as §1

DYRK2 = molecular target: T10, DYRK2 (Homo sapiens, UniProt Q92630)
T10 construct: purchased DiscoverX
T10 sequence (Q92630 1-601): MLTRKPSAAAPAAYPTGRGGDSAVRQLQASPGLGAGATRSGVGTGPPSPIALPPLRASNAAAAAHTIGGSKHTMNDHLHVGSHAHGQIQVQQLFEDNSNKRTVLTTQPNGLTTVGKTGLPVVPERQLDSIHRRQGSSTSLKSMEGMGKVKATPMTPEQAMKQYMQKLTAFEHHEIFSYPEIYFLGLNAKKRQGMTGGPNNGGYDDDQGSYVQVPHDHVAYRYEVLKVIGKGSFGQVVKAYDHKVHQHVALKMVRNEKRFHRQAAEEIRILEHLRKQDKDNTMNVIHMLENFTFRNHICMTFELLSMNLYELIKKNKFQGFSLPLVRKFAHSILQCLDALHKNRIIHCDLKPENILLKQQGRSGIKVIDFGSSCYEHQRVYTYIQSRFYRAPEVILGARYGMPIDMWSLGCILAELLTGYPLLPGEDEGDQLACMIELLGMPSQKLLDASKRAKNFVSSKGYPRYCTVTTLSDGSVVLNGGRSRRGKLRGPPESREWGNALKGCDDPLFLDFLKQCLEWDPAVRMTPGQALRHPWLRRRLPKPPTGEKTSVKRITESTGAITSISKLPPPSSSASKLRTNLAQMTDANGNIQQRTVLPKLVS
Method: as §1

CLK4 = molecular target: T11, CLK4 (Homo sapiens, UniProt Q9HAZ1)
T11 construct: purchased DiscoverX
Method: as §1

T1 sequence (Q15746 whole entry): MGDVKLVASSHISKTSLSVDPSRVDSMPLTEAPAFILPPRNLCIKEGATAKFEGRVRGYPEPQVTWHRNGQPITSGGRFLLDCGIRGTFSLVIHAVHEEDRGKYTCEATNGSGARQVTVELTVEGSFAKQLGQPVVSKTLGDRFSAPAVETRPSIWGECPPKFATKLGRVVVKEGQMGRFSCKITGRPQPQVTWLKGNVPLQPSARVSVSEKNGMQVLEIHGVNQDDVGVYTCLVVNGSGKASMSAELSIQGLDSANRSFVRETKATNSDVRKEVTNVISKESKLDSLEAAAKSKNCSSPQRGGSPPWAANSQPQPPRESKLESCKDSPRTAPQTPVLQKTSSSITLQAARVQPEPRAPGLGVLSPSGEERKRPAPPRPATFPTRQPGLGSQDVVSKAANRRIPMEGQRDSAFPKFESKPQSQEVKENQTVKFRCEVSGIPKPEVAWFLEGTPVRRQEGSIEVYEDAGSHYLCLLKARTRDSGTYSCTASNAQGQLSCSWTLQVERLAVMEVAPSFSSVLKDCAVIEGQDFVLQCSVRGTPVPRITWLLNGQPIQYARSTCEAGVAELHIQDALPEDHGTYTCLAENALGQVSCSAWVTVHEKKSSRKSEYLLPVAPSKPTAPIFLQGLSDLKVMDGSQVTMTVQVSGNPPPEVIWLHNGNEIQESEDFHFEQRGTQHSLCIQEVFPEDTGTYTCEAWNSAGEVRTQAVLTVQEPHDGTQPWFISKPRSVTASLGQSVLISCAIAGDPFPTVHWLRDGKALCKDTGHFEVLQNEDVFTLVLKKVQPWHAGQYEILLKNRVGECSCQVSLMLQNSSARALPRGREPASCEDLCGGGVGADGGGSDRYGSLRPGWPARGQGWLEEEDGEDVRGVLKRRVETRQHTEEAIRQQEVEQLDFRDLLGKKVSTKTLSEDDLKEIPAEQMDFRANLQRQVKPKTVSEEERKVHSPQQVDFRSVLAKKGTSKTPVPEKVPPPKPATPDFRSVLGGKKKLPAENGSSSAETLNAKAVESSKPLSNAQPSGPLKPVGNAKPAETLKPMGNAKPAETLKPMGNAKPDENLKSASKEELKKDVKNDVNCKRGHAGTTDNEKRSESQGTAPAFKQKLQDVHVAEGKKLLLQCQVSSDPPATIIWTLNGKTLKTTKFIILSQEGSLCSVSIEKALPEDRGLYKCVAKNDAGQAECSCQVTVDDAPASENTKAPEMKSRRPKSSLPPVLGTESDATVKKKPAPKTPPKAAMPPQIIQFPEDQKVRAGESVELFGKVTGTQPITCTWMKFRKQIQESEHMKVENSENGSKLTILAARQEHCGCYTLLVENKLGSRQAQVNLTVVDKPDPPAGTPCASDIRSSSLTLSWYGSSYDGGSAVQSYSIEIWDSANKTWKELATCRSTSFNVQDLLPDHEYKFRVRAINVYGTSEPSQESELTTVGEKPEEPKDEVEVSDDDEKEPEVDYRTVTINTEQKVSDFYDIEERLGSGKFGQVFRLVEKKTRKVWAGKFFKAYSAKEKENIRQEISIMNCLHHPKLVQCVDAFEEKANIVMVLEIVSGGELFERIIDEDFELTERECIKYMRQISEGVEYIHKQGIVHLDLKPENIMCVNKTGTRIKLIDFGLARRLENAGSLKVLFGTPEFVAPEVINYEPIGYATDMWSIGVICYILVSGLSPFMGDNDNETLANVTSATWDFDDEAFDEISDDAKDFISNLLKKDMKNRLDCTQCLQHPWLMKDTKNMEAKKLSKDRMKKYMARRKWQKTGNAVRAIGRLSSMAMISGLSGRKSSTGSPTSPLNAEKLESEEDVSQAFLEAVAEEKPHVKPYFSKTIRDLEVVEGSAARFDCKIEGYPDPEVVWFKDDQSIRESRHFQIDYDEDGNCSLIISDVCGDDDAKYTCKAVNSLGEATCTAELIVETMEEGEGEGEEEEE

Row | Compound | remaining binding at 1 µM (MYLK) [%] | remaining binding at 1 µM (CLK3) [%] | remaining binding at 1 µM (DYRK1B) [%] | remaining binding at 1 µM (GAK) [%] | remaining binding at 1 µM (ALK) [%] | remaining binding at 1 µM (ALK (C1156Y)) [%] | remaining binding at 1 µM (CLK1) [%] | remaining binding at 1 µM (CLK2) [%] | remaining binding at 1 µM (DYRK1A) [%] | remaining binding at 1 µM (DYRK2) [%] | remaining binding at 1 µM (CLK4) [%]
1 | COCCNc1cc(Nc2ccc(P3(=O)CCN(C4CC4)CC3)cc2OC)nc2[nH]cc(C(F)(F)F)c12 [Example 207, 1-cyclopropyl-4-(3-methoxy-4-((4-((2-methoxyethyl)amino)-3-(trifluoromethyl)-1H-pyrrolo[2,3-b]pyridin-6-yl)amino)phenyl)-1,4-azaphosphinane 4-oxide] | 5.3 | 66 | 0 | 38 | 5.9 | 1.8 | 5.6 | 7.2 | 0.4 | 18 | 0.55
2 | CNc1cc(Nc2ccc(S(=O)(=O)N3CCC(N4CCOCC4)CC3)cc2OC)nc2[nH]cc(C(F)(F)F)c12 [Example 184, N^6-(2-methoxy-4-((4-morpholinopiperidin-1-yl)sulfonyl)phenyl)-N^4-methyl-3-(trifluoromethyl)-1H-pyrrolo[2,3-b]pyridine-4,6-diamine] | 8 | 7.8 | 13 | 27 | 15 | 7 | 3.4 | 0.3 | 0.1 | 14 | 0.45
3 | CNc1cc(Nc2ccc(P3(=O)CCN(C4CC4)CC3)cc2OC)nc2[nH]cc(C(F)(F)F)c12 [Example 205, 1-cyclopropyl-4-(3-methoxy-4-((4-(methylamino)-3-(trifluoromethyl)-1H-pyrrolo[2,3-b]pyridin-6-yl)amino)phenyl)-1,4-azaphosphinane 4-oxide] | 0 | 37 | 2.5 | 12 | 1.4 | 1.3 | 18 | 0.15 | 0.25 | 28 | 0.25

Other lines, results leading:

Row | remaining binding at 1 µM (MYLK) [%] | remaining binding at 1 µM (CLK3) [%] | remaining binding at 1 µM (DYRK1B) [%] | remaining binding at 1 µM (GAK) [%] | remaining binding at 1 µM (ALK) [%] | remaining binding at 1 µM (ALK (C1156Y)) [%] | remaining binding at 1 µM (CLK1) [%] | remaining binding at 1 µM (CLK2) [%] | remaining binding at 1 µM (DYRK1A) [%] | remaining binding at 1 µM (DYRK2) [%] | remaining binding at 1 µM (CLK4) [%] | Compound
4 | 37 | 27 | 3 | 14 | 9.5 | 10 | 9.7 | 1.2 | 1.3 | 21 | 0.3 | CCNc1cc(Nc2ccc(S(=O)(=O)N3CCC(N4CCOCC4)CC3)c3c2OCCO3)nc2[nH]cc(C(F)(F)F)c12 [Example 96, N^4-ethyl-N^6-(8-((4-morpholonopiperidin-1-yl)sulfonyl)-2,3-dihydrobenzo [b] [1,4]dioxin-5-yl)-3-(trifluoromethyl)-1H-pyrrolo[2,3-b]pyridine-4,6-diamine]
5 | 30 | 60 | 0.45 | 12 | 17 | 12 | 7.5 | 8.2 | 5.1 | 18 | 0.25 | O=C(c1ccc(Nc2cc(C3CC3)c3c(C(F)(F)F)c[nH]c3n2)c2c1OCCO2)N1CCC(N2CCOCC2)CC1 [Example 221, (8-((4-cyclopropyl-3-(trifluoromethyl)-1H-pyrrolo[2,3-b]pyridin-6-yl)amino)-2,3-dihydrobenzo [b] [1,4]dioxin-5-yl)(4-morpholinopiperidin-1-yl)methanone]
6 | 0 | 13 | 0 | 6.3 | 0.65 | 0.9 | 13 | 0.65 | 0.35 | 20 | 0.55 | CCCNc1cc(Nc2ccc(C(=O)N3CCC(N4CCOCC4)CC3)c3c2OCCO3)nc2[nH]cc(C(F)(F)F)c12 [Example 162, (4-morpholinopiperidin-1-yl)(8-((4-(propylamino)-3-(trifluoromethyl)-1H-pyrrolo[2,3-b]pyridin-6-yl)amino)-2,3-dihydrobenzo[b] [1,4]dioxin-5-yl)methanone]
7 | 1.3 | 5.9 | 0.9 | 4.8 | 0.3 | 2 | 1.5 | 0.35 | 0 | 8 | 5.5 | CCNc1cc(Nc2ccc(C(=O)N3CCC(N4C[C@@H]5C[C@H]4CO5)CC3)c3c2OCC3)nc2[nH]cc(C(F)(F)F)c12 [Example 105, (4-((1S,4S)-2-oxa-5-azabicyclo[2.2.1]heptan-5-yl)piperidin-1-yl)(7-((4-(ethylamino)-3-(trifluoromethyl)-1H-pyrrolo[2,3-b]pyridin-6-yl)amino)-2,3-dihydrobenzofuran-4-yl)methanone]
8 | 33 | 56 | 0.7 | 27 | 67 | 42 | 2.4 | 0.25 | 1.9 | 89 | 0.35 | O=C(c1ccc(Nc2cc(C3CC3)c3c(C(F)(F)F)c[nH]c3n2)c2c1CCO2)N1CC[C@@H](N2CCOCC2)C1 [Example 238, (R)-(7-((4-cyclopropyl-3-(trifluoromethyl)-1H-pyrrolo[2,3-b]pyridin-6-yl)amino)-2,3-dihydrobenzofuran-4-yl)(3-morpholinopyrrolidin-1-yl)methanone]
